Data taken from patent US11826373B2, “Methods for treatment of diseases” (Galera Labs, LLC, priority 2011, dated 2023).

Test system: healthy male and female subjects
Experiment: Human Phase 1 single rising dose safety and tolerability of GC4403
Assay type: in vivo
Method: In a Phase 1 randomized, double-blind, placebo-controlled single rising dose safety, tolerability and pharmacokinetics study, 54 healthy male and female subjects were dosed from 2.2 to 25 mg of GC4403 administered intravenously over 30 minutes. Disposition of GC4403 is multi-exponential and follows linear pharmacokinetics with generally proportional increases in AUC and Cmax with increasing dose over the dose ranges studied. […] GC4403 is excreted unchanged in the urine and accounts for approximately 9 to 17% of the dose administered. No significant cardiovascular or vital sign effects, no significant physical examination abnormalities, and no significant abnormalities in routine clinical laboratory assessments were observed. Facial tingling, generalized tingling, paraesthesias and facial warmth were reported in a dose responsive manner, occurring at the 16.7 and 25 mg GC4403 doses.

## [Cl][Mn-5]1234([Cl])[n+]5c6cccc5C[NH+]1[C@@H]1CCCC[C@H]1[NH+]2CC[NH+]3[C@@H]1CCCC[C@H]1[NH+]4C6 (stereo partly shown) [GC4403]
2.2 mg, 4 subjects dosed
  Any Event (treatment-emergent adverse event): 1 (25) N (%)
  Conjunctivitis (treatment-emergent adverse event): 1 (25) N (%)
  Cough (treatment-emergent adverse event): 0 (0) N (%)
  Discolored Urine (treatment-emergent adverse event): 0 (0) N (%)
  Drowsiness (treatment-emergent adverse event): 0 (0) N (%)
  Facial Warmth (treatment-emergent adverse event): 0 (0) N (%)
  Feeling Drunk (treatment-emergent adverse event): 0 (0) N (%)
  Headache (treatment-emergent adverse event): 0 (0) N (%)
  Inj. Site Pressure (treatment-emergent adverse event): 0 (0) N (%)
  Inj. Site Reaction (treatment-emergent adverse event): 0 (0) N (%)
  Injection Site Pain (treatment-emergent adverse event): 0 (0) N (%)
  Lightheadedness (treatment-emergent adverse event): 0 (0) N (%)
  Paresthesia (treatment-emergent adverse event): 0 (0) N (%)
  Skin Tightness (treatment-emergent adverse event): 0 (0) N (%)
  Taste Perversion (treatment-emergent adverse event): 0 (0) N (%)
  Tingling (treatment-emergent adverse event): 0 (0) N (%)
  Tingling Mouth (treatment-emergent adverse event): 0 (0) N (%)
3.3 mg, 4 subjects dosed
  Any Event (treatment-emergent adverse event): 2 (50) N (%)
  Conjunctivitis (treatment-emergent adverse event): 0 (0) N (%)
  Cough (treatment-emergent adverse event): 0 (0) N (%)
  Discolored Urine (treatment-emergent adverse event): 0 (0) N (%)
  Drowsiness (treatment-emergent adverse event): 0 (0) N (%)
  Facial Warmth (treatment-emergent adverse event): 0 (0) N (%)
  Feeling Drunk (treatment-emergent adverse event): 0 (0) N (%)
  Headache (treatment-emergent adverse event): 0 (0) N (%)
  Inj. Site Pressure (treatment-emergent adverse event): 0 (0) N (%)
  Inj. Site Reaction (treatment-emergent adverse event): 1 (25) N (%)
  Injection Site Pain (treatment-emergent adverse event): 0 (0) N (%)
  Lightheadedness (treatment-emergent adverse event): 1 (25) N (%)
  Paresthesia (treatment-emergent adverse event): 0 (0) N (%)
  Skin Tightness (treatment-emergent adverse event): 0 (0) N (%)
  Taste Perversion (treatment-emergent adverse event): 0 (0) N (%)
  Tingling (treatment-emergent adverse event): 0 (0) N (%)
  Tingling Mouth (treatment-emergent adverse event): 0 (0) N (%)
4.9 mg, 4 subjects dosed
  Any Event (treatment-emergent adverse event): 1 (25) N (%)
  Conjunctivitis (treatment-emergent adverse event): 0 (0) N (%)
  Cough (treatment-emergent adverse event): 0 (0) N (%)
  Discolored Urine (treatment-emergent adverse event): 0 (0) N (%)
  Drowsiness (treatment-emergent adverse event): 0 (0) N (%)
  Facial Warmth (treatment-emergent adverse event): 0 (0) N (%)
  Feeling Drunk (treatment-emergent adverse event): 0 (0) N (%)
  Headache (treatment-emergent adverse event): 0 (0) N (%)
  Inj. Site Pressure (treatment-emergent adverse event): 0 (0) N (%)
  Inj. Site Reaction (treatment-emergent adverse event): 0 (0) N (%)
  Injection Site Pain (treatment-emergent adverse event): 0 (0) N (%)
  Lightheadedness (treatment-emergent adverse event): 0 (0) N (%)
  Paresthesia (treatment-emergent adverse event): 0 (0) N (%)
  Skin Tightness (treatment-emergent adverse event): 0 (0) N (%)
  Taste Perversion (treatment-emergent adverse event): 0 (0) N (%)
  Tingling (treatment-emergent adverse event): 0 (0) N (%)
  Tingling Mouth (treatment-emergent adverse event): 0 (0) N (%)
7.4 mg, 4 subjects dosed
  Any Event (treatment-emergent adverse event): 3 (75) N (%)
  Conjunctivitis (treatment-emergent adverse event): 0 (0) N (%)
  Cough (treatment-emergent adverse event): 0 (0) N (%)
  Discolored Urine (treatment-emergent adverse event): 0 (0) N (%)
  Drowsiness (treatment-emergent adverse event): 0 (0) N (%)
  Facial Warmth (treatment-emergent adverse event): 0 (0) N (%)
  Feeling Drunk (treatment-emergent adverse event): 0 (0) N (%)
  Headache (treatment-emergent adverse event): 1 (25) N (%)
  Inj. Site Pressure (treatment-emergent adverse event): 1 (25) N (%)
  Inj. Site Reaction (treatment-emergent adverse event): 0 (0) N (%)
  Injection Site Pain (treatment-emergent adverse event): 0 (0) N (%)
  Lightheadedness (treatment-emergent adverse event): 0 (0) N (%)
  Paresthesia (treatment-emergent adverse event): 0 (0) N (%)
  Skin Tightness (treatment-emergent adverse event): 0 (0) N (%)
  Taste Perversion (treatment-emergent adverse event): 0 (0) N (%)
  Tingling (treatment-emergent adverse event): 0 (0) N (%)
  Tingling Mouth (treatment-emergent adverse event): 0 (0) N (%)
11.1 mg, 4 subjects dosed
  Any Event (treatment-emergent adverse event): 0 (0) N (%)
  Conjunctivitis (treatment-emergent adverse event): 0 (0) N (%)
  Cough (treatment-emergent adverse event): 0 (0) N (%)
  Discolored Urine (treatment-emergent adverse event): 0 (0) N (%)
  Drowsiness (treatment-emergent adverse event): 0 (0) N (%)
  Facial Warmth (treatment-emergent adverse event): 0 (0) N (%)
  Feeling Drunk (treatment-emergent adverse event): 0 (0) N (%)
  Headache (treatment-emergent adverse event): 0 (0) N (%)
  Inj. Site Pressure (treatment-emergent adverse event): 0 (0) N (%)
  Inj. Site Reaction (treatment-emergent adverse event): 0 (0) N (%)
  Injection Site Pain (treatment-emergent adverse event): 0 (0) N (%)
  Lightheadedness (treatment-emergent adverse event): 0 (0) N (%)
  Paresthesia (treatment-emergent adverse event): 0 (0) N (%)
  Skin Tightness (treatment-emergent adverse event): 0 (0) N (%)
  Taste Perversion (treatment-emergent adverse event): 0 (0) N (%)
  Tingling (treatment-emergent adverse event): 0 (0) N (%)
  Tingling Mouth (treatment-emergent adverse event): 0 (0) N (%)
16.7 mg, 4 subjects dosed
  Any Event (treatment-emergent adverse event): 2 (50) N (%)
  Conjunctivitis (treatment-emergent adverse event): 0 (0) N (%)
  Cough (treatment-emergent adverse event): 1 (25) N (%)
  Discolored Urine (treatment-emergent adverse event): 0 (0) N (%)
  Drowsiness (treatment-emergent adverse event): 0 (0) N (%)
  Facial Warmth (treatment-emergent adverse event): 0 (0) N (%)
  Feeling Drunk (treatment-emergent adverse event): 0 (0) N (%)
  Headache (treatment-emergent adverse event): 1 (25) N (%)
  Inj. Site Pressure (treatment-emergent adverse event): 0 (0) N (%)
  Inj. Site Reaction (treatment-emergent adverse event): 0 (0) N (%)
  Injection Site Pain (treatment-emergent adverse event): 1 (25) N (%)
  Lightheadedness (treatment-emergent adverse event): 0 (0) N (%)
  Paresthesia (treatment-emergent adverse event): 0 (0) N (%)
  Skin Tightness (treatment-emergent adverse event): 0 (0) N (%)
  Taste Perversion (treatment-emergent adverse event): 0 (0) N (%)
  Tingling (treatment-emergent adverse event): 2 (50) N (%)
  Tingling Mouth (treatment-emergent adverse event): 0 (0) N (%)
25.0 mg, 12 subjects dosed
  Any Event (treatment-emergent adverse event): 10 (87.3) N (%)
  Conjunctivitis (treatment-emergent adverse event): 0 (0) N (%)
  Cough (treatment-emergent adverse event): 0 (0) N (%)
  Discolored Urine (treatment-emergent adverse event): 1 (8.3) N (%)
  Drowsiness (treatment-emergent adverse event): 1 (8.3) N (%)
  Facial Warmth (treatment-emergent adverse event): 1 (8.3) N (%)
  Feeling Drunk (treatment-emergent adverse event): 1 (8.3) N (%)
  Headache (treatment-emergent adverse event): 1 (8.3) N (%)
  Inj. Site Pressure (treatment-emergent adverse event): 1 (8.3) N (%)
  Inj. Site Reaction (treatment-emergent adverse event): 1 (8.3) N (%)
  Injection Site Pain (treatment-emergent adverse event): 4 (33.3) N (%)
  Lightheadedness (treatment-emergent adverse event): 2 (16.7) N (%)
  Paresthesia (treatment-emergent adverse event): 1 (8.3) N (%)
  Skin Tightness (treatment-emergent adverse event): 1 (8.3) N (%)
  Taste Perversion (treatment-emergent adverse event): 1 (8.3) N (%)
  Tingling (treatment-emergent adverse event): 3 (25.0) N (%)
  Tingling Mouth (treatment-emergent adverse event): 5 (41.7) N (%)
2.2 to 25 mg IV over 30 minutes
  maximum tolerated dose (MTD): not established
Healthy subjects
  tolerability of single doses up to 25 mg: no severe adverse events
